In the CheMixHub ionic liquid set:
± gives the uncertainty stated by the source.

Experiment: xn = mol fraction of the nth substance listed
Details: 100 kPa

CCCC[N+]1(C)CCCC1.N#C[C-](C#N)C#N + O
Details | electrical conductivity [S/m] | viscosity [mPa·s]
288.15 K, x2 = 0.0718 | 0.723 ± 0.015 | 40.02 ± 0.89
288.15 K, x2 = 0.1358 | 0.799 ± 0.016 | 35.64 ± 0.78
288.15 K, x2 = 0.1942 | 0.872 ± 0.018 | 32.15 ± 0.7
288.15 K, x2 = 0.2886 | 0.993 ± 0.02 | 27.21 ± 0.58
288.15 K, x2 = 0.3569 | 1.09 ± 0.022 | 24.1 ± 0.51
288.15 K, x2 = 0.431 | 1.21 ± 0.024 | 21.17 ± 0.45
288.15 K, x2 = 0.5238 | 1.38 ± 0.028 | 17.74 ± 0.37
288.15 K, x2 = 0.6162 | 1.55 ± 0.031 | 15 ± 0.31
288.15 K, x2 = 0.7143 | 1.8 ± 0.036 | 12.05 ± 0.25
288.15 K, x2 = 0.7708 | 1.9 ± 0.038 | 10.98 ± 0.22
293.15 K, x2 = 0.0718 | 0.882 ± 0.018 | 32.78 ± 0.73
293.15 K, x2 = 0.1358 | 0.957 ± 0.019 | 29.3 ± 0.65
293.15 K, x2 = 0.1942 | 1.04 ± 0.021 | 26.51 ± 0.58
293.15 K, x2 = 0.2886 | 1.18 ± 0.024 | 22.51 ± 0.48
293.15 K, x2 = 0.3569 | 1.3 ± 0.026 | 20 ± 0.43
293.15 K, x2 = 0.431 | 1.44 ± 0.029 | 17.55 ± 0.37
293.15 K, x2 = 0.5238 | 1.63 ± 0.033 | 14.75 ± 0.31
293.15 K, x2 = 0.6162 | 1.86 ± 0.037 | 12.41 ± 0.26
293.15 K, x2 = 0.7143 | 2.14 ± 0.043 | 9.96 ± 0.2
293.15 K, x2 = 0.7708 | 2.26 ± 0.045 | 9.06 ± 0.19
298.15 K, x2 = 0.0718 | 1.05 ± 0.021 | 27.26 ± 0.61
298.15 K, x2 = 0.1358 | 1.13 ± 0.023 | 24.45 ± 0.54
298.15 K, x2 = 0.1942 | 1.23 ± 0.025 | 22.18 ± 0.48
298.15 K, x2 = 0.2886 | 1.39 ± 0.028 | 18.9 ± 0.41
298.15 K, x2 = 0.3569 | 1.52 ± 0.031 | 16.78 ± 0.36
298.15 K, x2 = 0.431 | 1.69 ± 0.034 | 14.76 ± 0.31
298.15 K, x2 = 0.5238 | 1.92 ± 0.038 | 12.43 ± 0.26
298.15 K, x2 = 0.6162 | 2.18 ± 0.044 | 10.42 ± 0.22
298.15 K, x2 = 0.7143 | 2.52 ± 0.051 | 8.36 ± 0.17
298.15 K, x2 = 0.7708 | 2.67 ± 0.053 | 7.58 ± 0.16
303.15 K, x2 = 0.0718 | 1.22 ± 0.025 | 22.88 ± 0.51
303.15 K, x2 = 0.1358 | 1.32 ± 0.027 | 20.68 ± 0.46
303.15 K, x2 = 0.1942 | 1.43 ± 0.029 | 18.8 ± 0.41
303.15 K, x2 = 0.2886 | 1.61 ± 0.032 | 16.06 ± 0.35
303.15 K, x2 = 0.3569 | 1.76 ± 0.035 | 14.28 ± 0.3
303.15 K, x2 = 0.431 | 1.96 ± 0.039 | 12.58 ± 0.27
303.15 K, x2 = 0.5238 | 2.22 ± 0.045 | 10.62 ± 0.22
303.15 K, x2 = 0.6162 | 2.52 ± 0.051 | 8.87 ± 0.18
303.15 K, x2 = 0.7143 | 2.93 ± 0.059 | 7.1 ± 0.15
303.15 K, x2 = 0.7708 | 3.09 ± 0.062 | 6.47 ± 0.13
308.15 K, x2 = 0.0718 | 1.42 ± 0.028 | 19.58 ± 0.44
308.15 K, x2 = 0.1358 | 1.53 ± 0.031 | 17.69 ± 0.39
308.15 K, x2 = 0.1942 | 1.65 ± 0.033 | 16.13 ± 0.35
308.15 K, x2 = 0.2886 | 1.85 ± 0.037 | 13.82 ± 0.3
308.15 K, x2 = 0.3569 | 2.03 ± 0.041 | 12.3 ± 0.26
308.15 K, x2 = 0.431 | 2.22 ± 0.045 | 10.84 ± 0.23
308.15 K, x2 = 0.5238 | 2.56 ± 0.051 | 9.18 ± 0.19
308.15 K, x2 = 0.6162 | 2.9 ± 0.058 | 7.65 ± 0.16
308.15 K, x2 = 0.7143 | 3.35 ± 0.067 | 6.11 ± 0.13
308.15 K, x2 = 0.7708 | 3.54 ± 0.071 | 5.56 ± 0.11
313.15 K, x2 = 0.0718 | 1.62 ± 0.032 | 16.87 ± 0.38
313.15 K, x2 = 0.1358 | 1.74 ± 0.035 | 15.26 ± 0.34
313.15 K, x2 = 0.1942 | 1.87 ± 0.038 | 13.96 ± 0.3
313.15 K, x2 = 0.2886 | 2.11 ± 0.042 | 12 ± 0.26
313.15 K, x2 = 0.3569 | 2.3 ± 0.046 | 10.7 ± 0.23
313.15 K, x2 = 0.431 | 2.54 ± 0.051 | 9.44 ± 0.2
313.15 K, x2 = 0.5238 | 2.89 ± 0.058 | 8.02 ± 0.17
313.15 K, x2 = 0.6162 | 3.28 ± 0.066 | 6.68 ± 0.14
313.15 K, x2 = 0.7143 | 3.81 ± 0.076 | 5.31 ± 0.11
313.15 K, x2 = 0.7708 | 4.02 ± 0.081 | 4.83 ± 0.1
318.15 K, x2 = 0.0718 | 1.84 ± 0.037 | 14.68 ± 0.33
318.15 K, x2 = 0.1358 | 1.97 ± 0.04 | 13.34 ± 0.29
318.15 K, x2 = 0.1942 | 2.12 ± 0.042 | 12.27 ± 0.27
318.15 K, x2 = 0.2886 | 2.37 ± 0.048 | 10.52 ± 0.23
318.15 K, x2 = 0.3569 | 2.6 ± 0.052 | 9.39 ± 0.2
318.15 K, x2 = 0.431 | 2.87 ± 0.057 | 8.29 ± 0.18
318.15 K, x2 = 0.5238 | 3.25 ± 0.065 | 7.06 ± 0.15
318.15 K, x2 = 0.6162 | 3.7 ± 0.074 | 5.83 ± 0.12
318.15 K, x2 = 0.7143 | 4.28 ± 0.086 | 4.66 ± 0.1
318.15 K, x2 = 0.7708 | 4.53 ± 0.091 | 4.24 ± 0.09
323.15 K, x2 = 0.0718 | 2.07 ± 0.041 | 12.88 ± 0.29
323.15 K, x2 = 0.1358 | 2.22 ± 0.044 | 11.74 ± 0.26
323.15 K, x2 = 0.1942 | 2.37 ± 0.048 | 10.81 ± 0.24
323.15 K, x2 = 0.2886 | 2.66 ± 0.053 | 9.3 ± 0.2
323.15 K, x2 = 0.3569 | 2.9 ± 0.058 | 8.31 ± 0.18
323.15 K, x2 = 0.431 | 3.19 ± 0.064 | 7.34 ± 0.16
323.15 K, x2 = 0.5238 | 3.63 ± 0.073 | 6.28 ± 0.13
323.15 K, x2 = 0.6162 | 4.12 ± 0.083 | 5.16 ± 0.11
323.15 K, x2 = 0.7143 | 4.78 ± 0.096 | 4.13 ± 0.09
323.15 K, x2 = 0.7708 | 5.06 ± 0.1 | 3.75 ± 0.08
328.15 K, x2 = 0.0718 | 2.31 ± 0.046 | 11.39 ± 0.25
328.15 K, x2 = 0.1358 | 2.48 ± 0.05 | 10.41 ± 0.23
328.15 K, x2 = 0.1942 | 2.65 ± 0.053 | 9.6 ± 0.21
328.15 K, x2 = 0.2886 | 2.96 ± 0.059 | 8.28 ± 0.18
328.15 K, x2 = 0.3569 | 3.21 ± 0.064 | 7.41 ± 0.16
328.15 K, x2 = 0.431 | 3.54 ± 0.071 | 6.56 ± 0.14
328.15 K, x2 = 0.5238 | 4.02 ± 0.08 | 5.63 ± 0.12
328.15 K, x2 = 0.6162 | 4.57 ± 0.091 | 4.61 ± 0.1
328.15 K, x2 = 0.7143 | 5.29 ± 0.11 | 3.68 ± 0.08
328.15 K, x2 = 0.7708 | 5.61 ± 0.11 | 3.35 ± 0.07
333.15 K, x2 = 0.0718 | 2.58 ± 0.052 | 10.14 ± 0.23
333.15 K, x2 = 0.1358 | 2.75 ± 0.055 | 9.29 ± 0.2
333.15 K, x2 = 0.1942 | 2.93 ± 0.059 | 8.58 ± 0.19
333.15 K, x2 = 0.2886 | 3.27 ± 0.065 | 7.42 ± 0.16
333.15 K, x2 = 0.3569 | 3.54 ± 0.071 | 6.65 ± 0.14
333.15 K, x2 = 0.431 | 3.91 ± 0.078 | 5.89 ± 0.12
333.15 K, x2 = 0.5238 | 4.43 ± 0.089 | 5.07 ± 0.11
333.15 K, x2 = 0.6162 | 5.01 ± 0.1 | 4.15 ± 0.09
333.15 K, x2 = 0.7143 | 5.83 ± 0.12 | 3.3 ± 0.07
333.15 K, x2 = 0.7708 | 6.17 ± 0.12 | 3.01 ± 0.06

CC[n+]1ccn(C)c1.N#C[S-] + O
Details | viscosity [mPa·s]
288.15 K, x2 = 0.9443 | 1.96 ± 0.02
293.15 K, x2 = 0.1006 | 22.55 ± 0.44
293.15 K, x2 = 0.7981 | 4.08 ± 0.06
293.15 K, x2 = 0.9105 | 2.27 ± 0.03
303.15 K, x2 = 0.1948 | 13.75 ± 0.27
303.15 K, x2 = 0.4011 | 9.55 ± 0.17
303.15 K, x2 = 0.6887 | 4.72 ± 0.07
308.15 K, x2 = 0 | 16.39 ± 0.35
308.15 K, x2 = 0.1948 | 12.02 ± 0.23
308.15 K, x2 = 0.6043 | 5.31 ± 0.08
308.15 K, x2 = 0.6887 | 4.19 ± 0.07
313.15 K, x2 = 0.1006 | 12.15 ± 0.24
313.15 K, x2 = 0.9105 | 1.44 ± 0.02
313.15 K, x2 = 0.9506 | 1.07 ± 0.01
318.15 K, x2 = 0 | 12.43 ± 0.26
318.15 K, x2 = 0.1948 | 9.38 ± 0.18
